Experiments:
Details in all cases: 28th day of the treatment
Direct seeding rice = test: Test for herbicidal effect by paddy foliage treatment: phytotoxicity to direct seeding rice; format: in vivo, rice (variety: Akebono)
Excerpt: A paddy soil was filled in a plastic pot of 100 cm^2 and subjected to puddling. Thereinto were sowed seeds of rice (variety: Akebono), Echinochloa crusgalli (L.) P. Beauv. Var. crus-galli, Leptochloa chinensis Nees., Monochoria vaginalis (Burm. f.) Kunth, or Fimbristylis miliacea Vahl, after which each plant was raised in a greenhouse in a drained treatment until the Echinochloa crus-galli (L.) P. Beauv. Var. crus-galli reached a two-leaf stage. […] 3 days after the spraying, water was filled at a depth of 3 cm. Then, the pot was allowed to stand for raising. The herbicidal effect of the wettable powder was examined at the 28th day of the treatment (the spraying of the dilution) in accordance with the standard of Table 4.

[1] = system: Echinochloa crusgalli (L.) P. Beauv. Var. crus-galli; test: Test for herbicidal effect by paddy foliage treatment; format: in vivo
Excerpt: (§1) A paddy soil was filled in a plastic pot of 100 cm^2 and subjected to puddling. Thereinto were sowed seeds of rice (variety: Akebono), Echinochloa crusgalli (L.) P. Beauv. Var. crus-galli, Leptochloa chinensis Nees., Monochoria vaginalis (Burm. f.) Kunth, or Fimbristylis miliacea Vahl, after which each plant was raised in a greenhouse in a drained treatment until the Echinochloa crus-galli (L.) P. Beauv. Var. crus-galli reached a two-leaf stage. At that timing, a wettable powder prepared in accordance with Formulation Example 2 was diluted with water based on the total sum of the active ingredients, and the dilution was sprayed at a rate of 20 liters/10 ares using a micro-sprayer (a product of OLYMPOS). 3 days after the spraying, water was filled at a depth of 3 cm. Then, the pot was allowed to stand for raising. The herbicidal effect of the wettable powder was examined at the 28th day of the treatment (the spraying of the dilution) in accordance with the standard of Table 4.

[2] = system: Fimbristylis miliacea Vahl; test: as above; format: in vivo
Excerpt: as §1

[3] = system: Leptochloa chinensis Nees.; test: as above; format: in vivo
Excerpt: as §1

[4] = system: Monochoria vaginalis (Burm. f.) Kunth; test: as above; format: in vivo
Excerpt: as §1

Cyperus serotinus Rottb. = test: Test for herbicidal effect by paddy soil treatment; format: in vivo
Excerpt: (§2) A paddy soil was filled in a plastic pot of 100 cm^2 and subjected to puddling. Thereinto were sowed seeds of Echinochloa oryzicola Vasing, Monochoria vaginalis (Burm. f.) Kunth, Schoenoplectus juncoides (Roxb.) Paila or Cyperus serotinus Rottb., after which water was filled at a depth of 3 cm. Each pot was placed in a greenhouse for raising, At a timing when the Echinochloa oryzicola Vasing reached about a two-leaf stage, a seedling of two-leaf stage rice (variety: Kinnanpuu) was transplanted into each pot at a depth of 2 cm. A wettable powder prepared in accordance with Formulation Example 2 was diluted with water based on the total sum of the active ingredients, and the dilution was dropped on the water surface of the pot. Then, the pot was allowed to stand for raising. The herbicidal effect of the wettable powder was examined at the 28th day of the treatment (the dropping of the dilution) in accordance with the standard of Table 4.

[5] = system: Echinochloa oryzicola Vasing; test: Test for herbicidal effect by paddy soil treatment; format: in vivo
Excerpt: as §2

[6] = system: Monochoria vaginalis (Burm. f.) Kunth; test: Test for herbicidal effect by paddy soil treatment; format: in vivo
Excerpt: as §2

[7] = system: Schoenoplectus juncoides (Roxb.) Paila; test: Test for herbicidal effect by paddy soil treatment; format: in vivo
Excerpt: as §2

Transplanted Rice = test: Test for herbicidal effect by paddy soil treatment: phytotoxicity to transplanted rice; format: in vivo, rice (variety: Kinnanpuu)
Excerpt: as §2, with “A wettable powder prepared in accordance with Formulation Example 2 was diluted with water based on the total sum of the active ingredients, and the dilution was dropped on the water surface of the pot.” left out

## CC1(C)CC(S(=O)(=O)Cc2c(OCC(F)F)ccc(Cl)c2Cl)=NO1 [Compound 34]
Direct seeding rice; Dose 20 g a.i./10a
  phytotoxicity index, Direct seeding rice: 2 (Herbicidal effect or phytotoxicity of 20% to less than 30%)
[1]; Dose 20 g a.i./10a
  herbicidal effect index, Echinochloa crus-galli: 5 (Herbicidal effect or phytotoxicity of 50% to less than 60%)
[2]; Dose 20 g a.i./10a
  herbicidal effect index, Fimbristylis miliacea: 4 (Herbicidal effect or phytotoxicity of 40% to less than 50%)
[3]; Dose 20 g a.i./10a
  herbicidal effect index, Leptochloa chinensis: 3 (Herbicidal effect or phytotoxicity of 30% to less than 40%)
[4]; Dose 20 g a.i./10a
  herbicidal effect index, Monochoria vaginalis: 5 (Herbicidal effect or phytotoxicity of 50% to less than 60%)

## CCOC(=O)c1cnn(C)c1S(=O)(=O)NC(=O)Nc1nc(OC)cc(OC)n1 [Pyrazosulfuron-ethyl, reference compound]
Direct seeding rice; Dose 3 g a.i./10a
  phytotoxicity index, Direct seeding rice: 1 (Herbicidal effect or phytotoxicity of 10% to less than 20%)
[1]; Dose 3 g a.i./10a
  herbicidal effect index, Echinochloa crus-galli: 2 (Herbicidal effect or phytotoxicity of 20% to less than 30%)
[2]; Dose 3 g a.i./10a
  herbicidal effect index, Fimbristylis miliacea: 8 (Herbicidal effect or phytotoxicity of 80% to less than 90%)
[3]; Dose 3 g a.i./10a
  herbicidal effect index, Leptochloa chinensis: 0 (Herbicidal effect (growth inhibition) or phytotoxicity of less that 10%)
[4]; Dose 3 g a.i./10a
  herbicidal effect index, Monochoria vaginalis: 6 (Herbicidal effect or phytotoxicity of 60% to less than 70%)

## COC(=O)c1ccccc1CS(=O)(=O)NC(=O)Nc1nc(OC)cc(OC)n1 [Bensulfuron-methyl, reference compound]
Cyperus serotinus Rottb.; Dose 1 g a.i./10a
  herbicidal effect index, Cyperus serotinus: 7 (Herbicidal effect or phytotoxicity of 70% to less than 80%)
[5]; Dose 1 g a.i./10a
  herbicidal effect index, Echinochloa oryzicola: 3 (Herbicidal effect or phytotoxicity of 30% to less than 40%)
[6]; Dose 1 g a.i./10a
  herbicidal effect index, Monochoria vaginalis: 8 (Herbicidal effect or phytotoxicity of 80% to less than 90%)
[7]; Dose 1 g a.i./10a
  herbicidal effect index, Schoenoplectus juncoides: 7 (Herbicidal effect or phytotoxicity of 70% to less than 80%)

## CCC(CC)Nc1c([N+](=O)[O-])cc(C)c(C)c1[N+](=O)[O-] [Pendimethalin, reference compound]
Direct seeding rice; Dose 80 g a.i./10a
  phytotoxicity index, Direct seeding rice: 1 (Herbicidal effect or phytotoxicity of 10% to less than 20%)
[1]; Dose 80 g a.i./10a
  herbicidal effect index, Echinochloa crus-galli: 5 (Herbicidal effect or phytotoxicity of 50% to less than 60%)
[2]; Dose 80 g a.i./10a
  herbicidal effect index, Fimbristylis miliacea: 3 (Herbicidal effect or phytotoxicity of 30% to less than 40%)
[3]; Dose 80 g a.i./10a
  herbicidal effect index, Leptochloa chinensis: 5 (Herbicidal effect or phytotoxicity of 50% to less than 60%)
[4]; Dose 80 g a.i./10a
  herbicidal effect index, Monochoria vaginalis: 2 (Herbicidal effect or phytotoxicity of 20% to less than 30%)

## CC1(C)CC(SCc2ccccc2)=NO1 [Compound 1]
Transplanted Rice; Dose 20 g a.i./10a
  phytotoxicity index, Transplanted Rice: 1 (Herbicidal effect or phytotoxicity of 10% to less than 20%)
Cyperus serotinus Rottb.; Dose 20 g a.i./10a
  herbicidal effect index, Cyperus serotinus: 2 (Herbicidal effect or phytotoxicity of 20% to less than 30%)
[5]; Dose 20 g a.i./10a
  herbicidal effect index, Echinochloa oryzicola: 8 (Herbicidal effect or phytotoxicity of 80% to less than 90%)
[6]; Dose 20 g a.i./10a
  herbicidal effect index, Monochoria vaginalis: 4 (Herbicidal effect or phytotoxicity of 40% to less than 50%)
[7]; Dose 20 g a.i./10a
  herbicidal effect index, Schoenoplectus juncoides: 6 (Herbicidal effect or phytotoxicity of 60% to less than 70%)

## CC1(C)CC(S(=O)(=O)Cc2c(OCC(F)(F)F)ccc(Cl)c2Cl)=NO1 [Compound 31]
Transplanted Rice; Dose 20 g a.i./10a
  phytotoxicity index, Transplanted Rice: 1 (Herbicidal effect or phytotoxicity of 10% to less than 20%)
Cyperus serotinus Rottb.; Dose 20 g a.i./10a
  herbicidal effect index, Cyperus serotinus: 2 (Herbicidal effect or phytotoxicity of 20% to less than 30%)
[5]; Dose 20 g a.i./10a
  herbicidal effect index, Echinochloa oryzicola: 8 (Herbicidal effect or phytotoxicity of 80% to less than 90%)
[6]; Dose 20 g a.i./10a
  herbicidal effect index, Monochoria vaginalis: 5 (Herbicidal effect or phytotoxicity of 50% to less than 60%)
[7]; Dose 20 g a.i./10a
  herbicidal effect index, Schoenoplectus juncoides: 4 (Herbicidal effect or phytotoxicity of 40% to less than 50%)
Direct seeding rice; Dose 20 g a.i./10a
  phytotoxicity index, Direct seeding rice: 2 (Herbicidal effect or phytotoxicity of 20% to less than 30%)
[1]; Dose 20 g a.i./10a
  herbicidal effect index, Echinochloa crus-galli: 6 (Herbicidal effect or phytotoxicity of 60% to less than 70%)
[2]; Dose 20 g a.i./10a
  herbicidal effect index, Fimbristylis miliacea: 2 (Herbicidal effect or phytotoxicity of 20% to less than 30%)
[3]; Dose 20 g a.i./10a
  herbicidal effect index, Leptochloa chinensis: 3 (Herbicidal effect or phytotoxicity of 30% to less than 40%)
[4]; Dose 20 g a.i./10a
  herbicidal effect index, Monochoria vaginalis: 3 (Herbicidal effect or phytotoxicity of 30% to less than 40%)

## COCc1cccc(C(O)c2nc(OC)cc(OC)n2)c1NS(=O)(=O)C(F)F (stereo not shown) [Pyrimisulfan, reference compound]
Transplanted Rice; Dose 1 g a.i./10a
  phytotoxicity index, Transplanted Rice: 1 (Herbicidal effect or phytotoxicity of 10% to less than 20%)
Cyperus serotinus Rottb.; Dose 1 g a.i./10a
  herbicidal effect index, Cyperus serotinus: 9 (Herbicidal effect or phytotoxicity of 90% to less than 100%)
[5]; Dose 1 g a.i./10a
  herbicidal effect index, Echinochloa oryzicola: 6 (Herbicidal effect or phytotoxicity of 60% to less than 70%)
[6]; Dose 1 g a.i./10a
  herbicidal effect index, Monochoria vaginalis: 6 (Herbicidal effect or phytotoxicity of 60% to less than 70%)
[7]; Dose 1 g a.i./10a
  herbicidal effect index, Schoenoplectus juncoides: 9 (Herbicidal effect or phytotoxicity of 90% to less than 100%)

## Cc1ccc(NC(=O)NC(C)(C)c2ccccc2)cc1 [Daimuron, reference compound]
Cyperus serotinus Rottb.; Dose 150 g a.i./10a
  herbicidal effect index, Cyperus serotinus: 3 (Herbicidal effect or phytotoxicity of 30% to less than 40%)
[5]; Dose 150 g a.i./10a
  herbicidal effect index, Echinochloa oryzicola: 0 (Herbicidal effect (growth inhibition) or phytotoxicity of less that 10%)
[6]; Dose 150 g a.i./10a
  herbicidal effect index, Monochoria vaginalis: 2 (Herbicidal effect or phytotoxicity of 20% to less than 30%)
[7]; Dose 150 g a.i./10a
  herbicidal effect index, Schoenoplectus juncoides: 7 (Herbicidal effect or phytotoxicity of 70% to less than 80%)

## C#CCOc1ccc(Cl)c(Cl)c1CS(=O)(=O)C1=NOC(C)(C)C1 [Compound 33]
Direct seeding rice; Dose 20 g a.i./10a
  phytotoxicity index, Direct seeding rice: 1 (Herbicidal effect or phytotoxicity of 10% to less than 20%)
[1]; Dose 20 g a.i./10a
  herbicidal effect index, Echinochloa crus-galli: 7 (Herbicidal effect or phytotoxicity of 70% to less than 80%)
[2]; Dose 20 g a.i./10a
  herbicidal effect index, Fimbristylis miliacea: 3 (Herbicidal effect or phytotoxicity of 30% to less than 40%)
[3]; Dose 20 g a.i./10a
  herbicidal effect index, Leptochloa chinensis: 6 (Herbicidal effect or phytotoxicity of 60% to less than 70%)
[4]; Dose 20 g a.i./10a
  herbicidal effect index, Monochoria vaginalis: 6 (Herbicidal effect or phytotoxicity of 60% to less than 70%)

## CCOc1cc(Cl)c(CS(=O)(=O)C2=NOC(C)(C)C2)cc1Cl [Compound 54]
Transplanted Rice; Dose 20 g a.i./10a
  phytotoxicity index, Transplanted Rice: 1 (Herbicidal effect or phytotoxicity of 10% to less than 20%)
Cyperus serotinus Rottb.; Dose 20 g a.i./10a
  herbicidal effect index, Cyperus serotinus: 1 (Herbicidal effect or phytotoxicity of 10% to less than 20%)
[5]; Dose 20 g a.i./10a
  herbicidal effect index, Echinochloa oryzicola: 8 (Herbicidal effect or phytotoxicity of 80% to less than 90%)
[6]; Dose 20 g a.i./10a
  herbicidal effect index, Monochoria vaginalis: 5 (Herbicidal effect or phytotoxicity of 50% to less than 60%)
[7]; Dose 20 g a.i./10a
  herbicidal effect index, Schoenoplectus juncoides: 2 (Herbicidal effect or phytotoxicity of 20% to less than 30%)
Direct seeding rice; Dose 20 g a.i./10a
  phytotoxicity index, Direct seeding rice: 2 (Herbicidal effect or phytotoxicity of 20% to less than 30%)
[1]; Dose 20 g a.i./10a
  herbicidal effect index, Echinochloa crus-galli: 7 (Herbicidal effect or phytotoxicity of 70% to less than 80%)
[2]; Dose 20 g a.i./10a
  herbicidal effect index, Fimbristylis miliacea: 2 (Herbicidal effect or phytotoxicity of 20% to less than 30%)
[3]; Dose 20 g a.i./10a
  herbicidal effect index, Leptochloa chinensis: 6 (Herbicidal effect or phytotoxicity of 60% to less than 70%)
[4]; Dose 20 g a.i./10a
  herbicidal effect index, Monochoria vaginalis: 4 (Herbicidal effect or phytotoxicity of 40% to less than 50%)

— patent US8114814B2, “Herbicide composition” (Kumiai Chemical Industry Co., Ltd., priority 2007, dated 2012)
